Measurements from patent US10774046B2, “Inhibitors for the treatment of cancer and related methods” (UNIVERSITY OF LOUISVILLE RESEARCH FOUNDATION, INC., priority 2017, dated 2020).

Experiments:
[1] = biological target: human recombinant PFKFB4 (Homo sapiens, UniProt Q16877); assay: ADP-Glo kinase assay; type: biochemical
Procedure: The fructose-6-phosphate kinase activity of human recombinant PFKFB4 in the presence of DMSO±indicated 5MPN concentrations was assayed as previously described. The activity of 5MPN against 97 kinases was examined using a commercially available active-site dependent competition binding assay core service (KINOMEscanEDGE) that quantifies the capacity of test agents to compete with an immobilized, active-site directed ligand using a DNA-tagged kinase and immobilized ligand and compound. For example, enzyme inhibition was studied using an ADP-Glo assay. The effect of MPN-2 on the activity of recombinant human PFKFB4 enzyme was examined in an ADP-Glo assay (Promega), which measures ADP formed from a kinase reaction. ADP is converted into ATP, which is converted into light by a luciferase. PFKFB4 protein was exposed to MPN-2 at indicated concentrations in the presence of ATP and fructose-6-phosphate and following manufacturer's instructions, ADP-Glo and kinase detections reagents were added. The data are shown as the decrease in luminescence caused by MPN-2 relative to DMSO.
Method: The efficacy of Formula (VIII) in inhibition of the kinase activity of the PFKFB4 enzyme was examined by exposing recombinant human PFKFB4 protein to Formula (VIII) in the ADP-Glo kinase assay (Promega) which measures ADP formed through a kinase reaction. Briefly, recombinant protein, ATP, substrate and Formula (VIII) were incubated together for the kinase reaction followed by the addition of ADP-Glo reagent, used to terminate the kinase reaction. Lastly, a kinase detection reagent was added to convert the newly formed ADP to ATP which was measured by a luciferase reaction. Data are shown in FIG. 10 as the decrease in luminescence caused by Formula (VIII) relative to DMSO.
Method: The efficacy of FB4-32 and FB4-35 in inhibition of the kinase activity of the PFKFB4 enzyme was examined by exposing recombinant human PFKFB4 protein to FB4-32 and FB4-35 in the ADP-Glo kinase assay (Promega) which measures ADP formed through a kinase reaction. Briefly, recombinant protein, ATP, substrate and FB4-32 or FB4-35 were incubated together for the kinase reaction followed by the addition of ADP-Glo reagent to terminate the kinase reaction. Last, a kinase detection reagent was added to convert the newly formed ADP to ATP which was measured by a luciferase reaction. Data are shown as the decrease in luminescence caused by FB4-32 and FB4-35 relative to DMSO.

[2] = test system: H460 cells; assay: F2,6BP measurement in cells (coupled enzyme reaction); type: cell-based, human
Procedure: Cells or tissues were prepared as previously described and F2,6BP content measured using a coupled enzyme reaction following a modification of the method of Van Schaftingen et al (VAN SCHAFTINGEN E et al. “A kinetic study of pyrophosphate:fructose-6-phosphate phosphotransferase from potato tubers. Application to a microassay of fructose 2,6-bisphosphate” Eur J Biochem (1982) Vol. 129, No. 1, pp. 191-195) and normalized to total cellular protein measured by the bicinchoninic acid assay (BCA, Thermo Scientific). For example, H460 cells were exposed to the indicated concentrations of MPN-2. In order to measure F2,6BP, cells were harvested, washed with PBS, lysed in NaOH/Tris acetate by heating at 80° C. and lysates neutralized to pH 7.2. F2,6BP content was measured using a coupled enzyme reaction following a modified method of Van Schaftingen et al (VAN SCHAFTINGEN E et al. “A kinetic study of pyrophosphate:fructose-6-phosphate phosphotransferase from potato tubers. Application to a microassay of fructose 2,6-bisphosphate” Eur J Biochem (1982) Vol. 129, No. 1, pp. 191-195). The F2,6BP concentration was normalized to total cellular protein measured by the bicinchoninic acid assay (BCA, Thermo Scientific). All data are expressed as the mean±SD of three experiments. Statistical significance was assessed by the two-sample t test (independent variable).
Method: In order to measure F26BP, H460 cells were exposed to increasing concentrations of the agents and were harvested, washed with PBS, lysed in NaOH/Tris acetate by heating at 80° C. and lysates neutralized to pH 7.2. F26BP content was measured using a coupled enzyme reaction following a modified method of Van Schaftingen et al. (Eur J Biochem. 1982; 129(1):191-195). The F26BP concentration was normalized to total cellular protein measured by the bicinchoninic acid assay (BCA, Thermo Scientific).

[3] = test system: Lewis lung carcinoma (LLC) tumors; assay: Lewis lung carcinoma tumor growth in syngeneic mice; type: in vivo, C57BL/6 mice
Procedure: For xenograft studies, exponentially growing LLC or H460 cells were detached, washed and resuspended in PBS. Female C57BL/6 mice (Jackson Labs) were injected with LLC cells (n=10/group, s.c., 1×10^6 cells) and female BALB/c athymic mice (Jackson Labs) with H460 cells (n=10/group, s.c, 5×10^6 cells). Tumor masses were determined in a blinded fashion with Vernier calipers using the formula: mass (mg)=(width, mm)^2×(length, mm)/2 as previously described. When tumor masses were 150-200 mg, mice were randomized to daily intraperitoneal DMSO or 5MPN at the indicated dose in 50 μL DMSO. Tumor measurements and body weights were followed daily. All data are expressed as the mean±SD of two experiments. Statistical significance was assessed by the two-sample t test (independent variable).
Method: C57BL/6 mice (Charles River) were implanted with 1×10^6 Lewis lung carcinoma cells subcutaneously and, after tumors developed, were followed by caliper measurements daily to quantify tumor mass using the formula: tumor mass=(length×width^2)/2. When tumors were ˜150-200 mg, mice were randomized to daily oral DMSO±Formula (VIII) (n=10/group) at 40 mg/kg in 50 μL DMSO and tumor growth followed×9 days. (* signifies statistical significance)

[4] = test system: LLC tumors; assay: tumor glucose uptake by FDG micro-PET; type: in vivo, C57BL/6 mice
Procedure: At the end of the experiment, animals were euthanized, tumors removed and sections fixed in 10% formaldehyde for immunohistochemistry or snap-frozen in liquid nitrogen for analyses. Subsets of tumor-bearing mice (n=3) were injected i.p. with 2-[^18F]-fluoro-2-deoxyglucose (FDG, 150 μCi, 100 μl) and imaged by micro-positron emission tomography as previously described. Regions of interest in the tumors and cerebellum were quantified in quadruplicate and expressed as the mean±SD of the tumor:cerebellar FDG uptake ratio. Animal experiments were approved by the University of Louisville Institutional Animal Care and Use Committee.
Method: FDG-PET was conducted on tumor-bearing mice to determine acute effects of Formula (VIII) on glucose uptake. C57BL/6 mice (Charles River) with subcutaneous Lewis lung carcinoma tumors were injected intraperitoneally with 100 μCi of ^18F-fluoro-2-deoxy-glucose under isoflurane anesthesia and subjected to a 15-minute static scan 45 minutes after tracer injection at baseline. […] Tumor/cerebellum ROI (regions of interest) were quantified, representative sagittal cuts from mice are shown with arrows showing the tumors on the animals. (* signifies statistical significance).

Sequence of human recombinant PFKFB4 (Q16877 whole entry): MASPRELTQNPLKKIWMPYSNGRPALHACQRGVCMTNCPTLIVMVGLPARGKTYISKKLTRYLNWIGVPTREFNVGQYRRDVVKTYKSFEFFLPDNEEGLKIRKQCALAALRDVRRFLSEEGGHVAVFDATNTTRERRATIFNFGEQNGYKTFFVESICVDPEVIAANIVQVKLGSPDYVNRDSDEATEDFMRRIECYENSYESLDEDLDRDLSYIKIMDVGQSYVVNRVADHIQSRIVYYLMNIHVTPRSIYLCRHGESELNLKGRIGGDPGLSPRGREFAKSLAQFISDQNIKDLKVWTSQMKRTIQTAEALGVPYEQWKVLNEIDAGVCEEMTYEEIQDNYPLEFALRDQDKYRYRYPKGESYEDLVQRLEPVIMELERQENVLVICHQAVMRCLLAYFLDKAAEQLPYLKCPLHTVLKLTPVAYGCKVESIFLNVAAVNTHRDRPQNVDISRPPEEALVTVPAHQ

| Compound | kinase activity of the PFKFB4 enzyme (luminescence relative to DMSO) [1] | F2,6BP production ([2]; H460, indicated concentrations of MPN-2) | tumor growth ([3]; intraperitoneal injection 10 mg/kg daily, eleven days) | intracellular concentration of F2,6BP ([2]; H460, 10 μM 5MPN, 6-72 hours) | effect of overexpression of PFKFB4 on reduction in F2,6BP ([2]; H460 transfected with PFKFB4, 10 μM 5MPN, 24 hours) | tumor growth ([3]; 5MPN 120 mg/kg oral daily, ten days) | body weight ([3]; LLC-bearing mice, 120 mg/kg oral daily) | 2-[18F]-fluoro-2-deoxyglucose uptake ([4]; 5MPN 120 mg/kg by gavage, once) | established tumor growth ([3]; oral 40 mg/kg daily, 9 days) | tumor FDG uptake ([4]; 40 mg/kg PO x1, PET after 60 minutes) |
| --- | --- | --- | --- | --- | --- | --- | --- | --- | --- | --- |
| 5-[(8-methoxy-2-methylquinolin-1-ium-4-yl)amino]pentyl nitrate [MPN-2] | inhibited | inhibited | suppressed the growth |  |  |  |  |  |  |  |
| COc1cccc2c(NCCCCCO[N+](=O)[O-])ccnc12 [5MPN, 5-[(8-methoxyquinolin-4-yl)amino]pentyl nitrate] |  |  |  | reduced | reversed | suppressed the growth | without affecting body weight | reduction |  |  |
| COc1cccc2c(NCCCCCNC(=O)C(F)(F)F)ccnc12 [Formula (VIII), 2,2,2-trifluoro-N-(5-((8-methoxyquinolin-4-yl)amino)pentyl)acetamide] | inhibited |  |  |  |  |  |  |  | decreased established tumor growth | decrease in tumor FDG uptake compared with vehicle |
